In patent publication US8227604B2, “Hybrid 2-aminotetralin and aryl-substituted piperazine compounds and their use in altering CNS activity” (Wayne State University, priority 2001, dated 2012):

Experiments:
D2 receptor [1] = target: T1, D2 receptor (Homo sapiens, UniProt P14416); test: Binding affinity at cloned human D2 receptor, [3H]YM-09151-2 (CHOp-D2 cells)
T1 construct: expressed in transfected cells
Method: (§1) CHOp-cells (human receptors) are grown to confluence in a minimum essential medium (α MEM) containing 10% fetal calf serum, 0.05% pen-strep, and 600 μg/ml of G418. The cells are scraped from the 100 by 20 mm plates and centrifuged at 500. g for 5 min. The pellet is homogenized by polytron in 50 mM Tris-HCl, pH 7.7, and centrifuged at 27,000·G for 12 min. The pellet is resuspended in 50 mM Tris, D2 at 5 mg protein/ml, D3 at 1 mg protein/ml, and stored at −70° C. in 1-ml aliquots.
(§2) On the day of the experiment, CHOp-D2 or CHOp-D3 cells are thawed, resuspended in 50 mM Tris, and centrifuged at 27,000·G for 12 min. The pellet is then resuspended at 5 mg protein/80 ml (D2) and 1 mg protein/80 ml (D3) in 50 mM Tris containing 120 mM of NaCl, 5 mM of KCl, 1.5 mM of CaCl2, 4 mM of MgCl2, and 1 mM of EDTA, pH 7.4. […] Nonspecific binding is determined with 1 mM of chlorpromazine. The plates are incubated at 25° C. for 60 min before filtration and counted as usual. The filters are soaked in 0.1% PEI before filtering.

5HT2A receptor = target: T2, 5HT2A receptor (Homo sapiens, UniProt P28223); test: Binding affinity at cloned human 5HT2A receptor, [3H]Ketanserin
T2 construct: expressed in transfected cells
T2 sequence (P28223 whole entry): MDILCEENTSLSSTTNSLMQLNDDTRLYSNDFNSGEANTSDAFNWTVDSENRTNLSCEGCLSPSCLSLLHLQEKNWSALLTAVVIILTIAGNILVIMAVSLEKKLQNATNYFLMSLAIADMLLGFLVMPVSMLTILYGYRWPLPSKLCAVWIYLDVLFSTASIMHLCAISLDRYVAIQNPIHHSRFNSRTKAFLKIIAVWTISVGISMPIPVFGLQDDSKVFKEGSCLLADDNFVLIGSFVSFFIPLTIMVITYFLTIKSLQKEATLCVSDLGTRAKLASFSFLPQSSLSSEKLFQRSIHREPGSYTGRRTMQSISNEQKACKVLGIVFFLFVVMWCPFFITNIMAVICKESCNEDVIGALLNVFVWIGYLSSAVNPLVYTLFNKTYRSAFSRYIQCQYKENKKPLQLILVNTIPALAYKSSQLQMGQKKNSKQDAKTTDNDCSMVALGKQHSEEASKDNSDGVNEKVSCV

D2 receptor [2] = target: T1, D2 receptor; test: Agonist potency by [3H]thymidine incorporation (mitogenesis), D2; format: cell-based; conditions: [3H]thymidine incorporation; for Emax: >80% full agonist, read-out: D2 % Maxm Stim
Method: (§3) Potential as domaminergenic agonists was assayed by ^3H-thymidine incorporation by standard techniques.
(§4) The EC50 values thus indicate intrinsic activities or functional activities of these compounds. The value of % maximum stimulation indicates whether a compound is a partial agonist or full agonist. Generally, a value greater than 80% is considered as a full agonist and anything less than 80% is considered as a partial agonist.

D2L receptor = target: T3, D2L receptor (Homo sapiens, UniProt P14416); test: Inhibition constants for binding to cloned D2L receptor expressed in HEK cells, [3H]spiperone
T3 construct: expressed in transfected cells; host or cells: HEK cells
T3 sequence (P14416 whole entry): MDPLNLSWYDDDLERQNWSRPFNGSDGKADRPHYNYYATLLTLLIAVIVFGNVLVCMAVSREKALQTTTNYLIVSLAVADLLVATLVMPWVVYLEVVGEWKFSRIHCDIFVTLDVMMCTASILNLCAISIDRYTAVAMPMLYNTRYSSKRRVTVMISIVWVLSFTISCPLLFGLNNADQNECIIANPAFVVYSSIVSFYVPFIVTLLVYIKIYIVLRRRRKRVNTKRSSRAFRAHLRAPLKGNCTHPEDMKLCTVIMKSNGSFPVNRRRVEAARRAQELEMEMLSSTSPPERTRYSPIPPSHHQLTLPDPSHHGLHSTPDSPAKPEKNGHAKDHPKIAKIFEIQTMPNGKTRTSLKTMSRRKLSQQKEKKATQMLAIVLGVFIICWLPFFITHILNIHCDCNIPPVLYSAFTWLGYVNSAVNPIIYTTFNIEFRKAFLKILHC
Method: Inhibition constants for binding to cloned D2L and D3 receptors expressed in HEK cells by displacing [^3H] spiperone were measured for several compounds.

D4 receptor [3] = target: T4, D4 receptor (Homo sapiens, UniProt P21917); test: Agonist potency by [3H]thymidine incorporation (mitogenesis), D4; format: cell-based; set-up: expressed in transfected cells; conditions: for EC50 / D4 % Maxm Stim: [3H]thymidine incorporation; for D4 % Maxm Stim: >80% full agonist
T4 sequence (P21917 1-419): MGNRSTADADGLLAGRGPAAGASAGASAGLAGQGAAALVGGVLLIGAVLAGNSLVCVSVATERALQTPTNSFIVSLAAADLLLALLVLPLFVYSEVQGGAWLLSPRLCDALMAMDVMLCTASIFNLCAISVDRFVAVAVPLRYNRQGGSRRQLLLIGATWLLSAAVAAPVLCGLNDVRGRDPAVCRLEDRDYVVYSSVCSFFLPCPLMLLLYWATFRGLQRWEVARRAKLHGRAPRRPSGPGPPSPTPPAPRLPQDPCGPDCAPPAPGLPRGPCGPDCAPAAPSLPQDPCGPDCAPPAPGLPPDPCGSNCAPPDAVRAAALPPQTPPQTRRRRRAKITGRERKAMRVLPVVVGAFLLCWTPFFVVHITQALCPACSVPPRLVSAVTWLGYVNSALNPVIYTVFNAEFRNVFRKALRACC
Method: as §3
The mitogenesis study results presented in Table 7 assay the ability of these ligands to act as agonists or antagonists. The EC50 values thus indicate intrinsic activities or functional activities of these compounds. The value of % maximum stimulation indicates whether a compound is a partial agonist or full agonist. Generally, a value greater than 80% is considered as a full agonist and anything less than 80% is considered as a partial agonist. A compound will be considered antagonist if it produces a negative result (no [3H]thymidine incorporation) in the assay. All the compounds reported in Table 7 are either full agonists or partial agonists.

D3 receptor [4] = target: T5, D3 receptor (Homo sapiens, UniProt P35462); test: Binding affinity at cloned human D3 receptor, [3H]YM-09151-2 (CHOp-D3 cells); set-up: expressed in transfected cells; host or cells: CHOp-D3 cells; conditions: for Ki: cloned human D3; for D2/D3: ratio of Ki D2 to Ki D3, [3H]YM-09151-2 protocol of Table 4
T5 sequence (P35462 whole entry): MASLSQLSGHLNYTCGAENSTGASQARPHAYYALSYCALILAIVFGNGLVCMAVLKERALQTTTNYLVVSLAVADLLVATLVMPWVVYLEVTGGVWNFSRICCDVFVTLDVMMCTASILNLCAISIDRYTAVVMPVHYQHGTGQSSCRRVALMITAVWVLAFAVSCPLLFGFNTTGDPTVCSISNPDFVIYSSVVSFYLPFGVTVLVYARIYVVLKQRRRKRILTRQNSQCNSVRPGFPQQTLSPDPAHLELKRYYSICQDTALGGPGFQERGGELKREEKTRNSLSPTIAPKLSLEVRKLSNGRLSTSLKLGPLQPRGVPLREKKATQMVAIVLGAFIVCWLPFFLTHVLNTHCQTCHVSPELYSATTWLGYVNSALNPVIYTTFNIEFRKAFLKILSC
Method: as §1, §2

D3 receptor [5] = target: T5, D3 receptor; test: Agonist potency by [3H]thymidine incorporation (mitogenesis), D3; format: cell-based; set-up: expressed in transfected cells; host or cells: CHOp-D3 cells; conditions: for EC50 / Emax: [3H]thymidine incorporation; for Emax: >80% full agonist, read-out: D3 % Maxm Stim
Method: as §3, §4

D4 receptor [6] = target: T4, D4 receptor; test: Binding affinity at cloned human D4 receptor, [3H]YM-09151-2 (CHO D4.4 cells); set-up: expressed in transfected cells; host or cells: CHO D4.4 cells; conditions: for Ki: cloned human D4
Method: CHO D4.4 cells (human receptors) are grown to confluence in D4 Puromycin medium containing 2 μg/ml puromycin, 5% fetal calf serum and 5 supplemented calf serum and 0.5% pen-strep. The cells are harvested as described for D2 and D3 cells and used at a concentration of 0.15 mg protein/well in the [^3H]YM-09151-2 binding assay.

T1 sequence (P14416 whole entry): as the sequence (P14416 whole entry) above

SMILES	Ki (D2 receptor [1]) [nM]	Ki (5HT2A receptor) [nM]	EC50 (D2 receptor [2]) [nM]	Emax (D2 receptor [2]) [%]	Ki (D2L receptor) [nM]	EC50 (D4 receptor [3]) [nM]	D4 % Maxm Stim (D4 receptor [3]) [%]	agonist character at the D4 receptor (D4 receptor [3]; functional assay)	Ki (D3 receptor [4]) [nM]	D2/D3 (D3 receptor [4])	EC50 (D3 receptor [5]) [nM]	Emax (D3 receptor [5]) [%]	agonist character at the D3 receptor (D3 receptor [5]; functional assay)	affinity at the D4 receptor (D4 receptor [6])	Ki (D4 receptor [6]) [nM]
CCCN(CCCCN1CCN(c2ccccc2)CC1)C1CCc2ccc(O)cc2C1 (centres unmarked) [Compound 15b, 7-Hydroxyl-2-[N-propyl-(N-(4-phenylpiperazin-1-yl)-butyl)amino]tetralin]	3.37 ± 0.78	1780 ± 614	3.21 ± 0.46	121 ± 26.1	114 ± 8	22.5 ± 11	102.81 ± 20.21	full agonists	3.47 ± 0.08	1	0.91 ± 0.46	74.9 ± 9.05	partial agonism	good affinity	25.7 ± 25.7
N#CCCCN(CCCCN1CCN(c2ccccc2)CC1)C1CCc2ccc(O)cc2C1 (centres unmarked) [Compound 8, 7-Hydroxy-2-[N-butyonitrile-(N-(4-phenylpiperazin-1-yl)-butyl)amino]tetralin]	89.8 ± 32.5	701 ± 16.8	74.5 ± 32.9	54.1 ± 4.82	622 ± 102	54.8 ± 18.6	–	–	75.8 ± 6.29	1.18	68.1 ± 36.7	67.1 ± 1.93	–	–	142 ± 6.5
O=C(NCCN(CCCCN1CCN(c2ccccc2)CC1)C1CCc2ccc(O)cc2C1)c1ccccc1 (centres unmarked) [Compound 10b, 7-Hydroxy-2-[N-(2-benzoylamino)ethyl-(N-(4-phenylpiperazin-1-yl)-butyl)amino]tetralin]	111 ± 32.2	287 ± 50.2	97.2 ± 47.7	27 ± 5.54	354 ± 2	26.7 ± 10.6	71.36 ± 10.17	–	84.6 ± 1.55	1.30	104 ± 57.3	50.9 ± 12.6	–	–	35.6 ± 1.42
O=C(NCCCCN(CCCCN1CCN(c2ccccc2)CC1)C1CCc2ccc(O)cc2C1)c1ccccc1 (centres unmarked) [Compound 10a, 7-Hydroxyl-2-[N-(4-benzoylaminobutyl)-(N-(4-phenylpiperazin-1-yl)-butyl)amino]tetralin]	119 ± 1.45	1230 ± 217	115 ± 20.2	44.9 ± 0.84	782 ± 42	32.2 ± 2.51	51.08 ± 1.72	–	313 ± 6.47	0.38	110 ± 33.3	44.1 ± 11.6	–	–	137 ± 10.2
